The record followed here is PMC9450014, “The evaluation of ADME and pharmacokinetic properties of decoquinate derivatives for the treatment of malaria” (Frontiers in Pharmacology, 2022).

Values joined by “and” are separate entries in the source; they are usually repeats but may differ in a detail not shown here. Equal entries are not always repeated.

The nature of series [1]: In vivo pharmacokinetics, oral administration. Also on record: species or system C57BL/6 mice. Particulars: mice. Here is the method: Healthy C57BL/6 mice each weighing approximately 25 g were maintained at the University of Cape Town animal facility. Mice were housed in 27 × 21 × 28 cm cages (n = 3) under controlled environmental conditions at 22 ± 2°C, humidity of 55 ± 15% and a 12-hour light/dark cycle. Food and water were available ad libitum. Mice were acclimatised to the experimental environment for 4–5 days prior to initiating the experiments. RMB005, −059 and −060 were prepared in an aqueous solution of HPMC containing 0.2% Tween 80. The weighed compound was sonicated and vortexed to obtain a homogenous suspension. Oral dosing of 20 mg/kg was achieved via oral gavage. The total volume per administration was 200 μL. Blood samples were collected post-dose in lithium heparin microvials via tail bleeding at predetermined intervals at 0.5, 1, 3, 5, 8, 10, and 24 h. Samples were gently vortexed and stored at −80°C until analysis. A quantitative LC-MS/MS assay was used to determine whole-blood concentrations of RMB005, −059 and −060. Whole blood samples (20 μL) were treated with 100 μL ice cold acetonitrile containing the compound RMB073 used previously for determination of whole blood concentrations in analysis of TB-active compounds, as internal standard (200 ng/ml) ([Tanner et al., 2019]). The mixture was vortexed vigorously for 1 min, and 5 µL of the supernatant were injected onto the analytical column following centrifugation (5,590 g for 5 min). Gradient elution was carried out using a Gemini NX-C18 analytical column (5 μm, 2.1 mm × 50 mm). The aqueous mobile phase consisted of 5 mm ammonium acetate with 0.1% acetic acid in deionised water, while the organic phase consisted of 0.1% acetic acid in acetonitrile. A Shimadzu HPLC and reverse phase Gemini NX-C18 column coupled to an AB Sciex 3200 Q TRAP MS was operated at unit resolution in the multiple reaction monitoring (MRM) mode. […] The calibration standards ranged from 2 ng/mL to 3,000 ng/mL for RMB005, and 2 ng/mL to 4,000 ng/mL for RMB059, −060 and DQ. Drug concentration versus time plots for each compound were used to determine maximal drug concentration C max, time T max to reach C max, elimination half-life t 1/2 and the area under the concentration-time curve from time zero to infinity, AUC0-inf. From these values the following PK parameters—clearance CL, volume of distribution (Vd) and oral bioavailability (BA) were determined using the non-compartmental analysis Microsoft Excel Add-In PKSolver ([Zhang et al., 2010]).

The nature of series [2]: Non-specific liver microsomal binding, HLM. The class given is in vitro ADME. Conditions: human liver microsomes. The procedure:
(§1) Plasma protein binding was determined in pooled human plasma using an ultracentrifugation method. Stock solutions of test compounds were diluted in phosphate buffer and spiked into plasma in deep well 96-well plates. An aliquot of each compound was immediately precipitated with ice cold acetonitrile containing the internal standard carbamazepine (0.1 μM). These served as total concentration samples. After incubation in a water bath (37°C for 1 h), samples were transferred to ultracentrifuge tubes in duplicate and centrifuged for 4 h at 37°C and 30,000 g (Optima L-80XP, Beckman). Following centrifugation, the supernatant was transferred to the plate containing the total concentration samples and precipitated with ice cold acetonitrile containing the internal standard. Samples were analysed by LC-MS/MS (Shimadzu HPLC coupled with an AB Sciex 3200 Q TRAP MS). Non-specific binding in mouse liver microsomes (MLM) and human liver microsomes (HLM) were also determined with the ultracentrifugation method. Stock solutions of compounds (10 mM) were added in duplicate to microsome solution (0.5 mg/mL) in phosphate buffer (pH 7.4) to obtain a final drug concentration of 1 μM. The same method as for plasma protein binding was utilized. Analyte concentrations of all compounds were determined via LC-MS/MS (reverse phase Gemini NX-C18 column and Shimadzu HPLC coupled with an AB Sciex 3200 Q TRAP MS).
For orientation: Liver microsomes are a subcellular fraction often used to study metabolism.

Series [3] in a line: In vivo pharmacokinetics, intravenous administration. Also on record: species or system C57BL/6 mice. Conditions: C57BL/6, mouse, iv, mice, whole blood, dosed compound measured. Here is the method:
Healthy C57BL/6 mice each weighing approximately 25 g were maintained at the University of Cape Town animal facility. Mice were housed in 27 × 21 × 28 cm cages (n = 3) under controlled environmental conditions at 22 ± 2°C, humidity of 55 ± 15% and a 12-hour light/dark cycle. Food and water were available ad libitum. Mice were acclimatised to the experimental environment for 4–5 days prior to initiating the experiments. […] The total volume of administration was 80 μL. Blood samples were collected post-dose in lithium heparin microvials via tail bleeding at predetermined intervals at 0.16, 0.5, 1, 3, 5, 8, 10, and 24 h. Samples were gently vortexed and stored at −80°C until analysis. A quantitative LC-MS/MS assay was used to determine whole-blood concentrations of RMB005, −059 and −060. Whole blood samples (20 μL) were treated with 100 μL ice cold acetonitrile containing the compound RMB073 used previously for determination of whole blood concentrations in analysis of TB-active compounds, as internal standard (200 ng/ml) ([Tanner et al., 2019]). The mixture was vortexed vigorously for 1 min, and 5 µL of the supernatant were injected onto the analytical column following centrifugation (5,590 g for 5 min). Gradient elution was carried out using a Gemini NX-C18 analytical column (5 μm, 2.1 mm × 50 mm). The aqueous mobile phase consisted of 5 mm ammonium acetate with 0.1% acetic acid in deionised water, while the organic phase consisted of 0.1% acetic acid in acetonitrile. A Shimadzu HPLC and reverse phase Gemini NX-C18 column coupled to an AB Sciex 3200 Q TRAP MS was operated at unit resolution in the multiple reaction monitoring (MRM) mode. […] The calibration standards ranged from 2 ng/mL to 3,000 ng/mL for RMB005, and 2 ng/mL to 4,000 ng/mL for RMB059, −060 and DQ. Drug concentration versus time plots for each compound were used to determine maximal drug concentration C max, time T max to reach C max, elimination half-life t 1/2 and the area under the concentration-time curve from time zero to infinity, AUC0-inf. From these values the following PK parameters—clearance CL, volume of distribution (Vd) and oral bioavailability (BA) were determined using the non-compartmental analysis Microsoft Excel Add-In PKSolver ([Zhang et al., 2010]).

A short description of series [4]: Non-specific liver microsomal binding, MLM. It counts as in vitro ADME. Conditions: mouse liver microsomes. Here is the method: as §1

In the case of `CCCCCCCCCCOc1cc2c(=O)c(C(=O)NCCOCCO)c[nH]c2cc1OCC` [RMB005], in series [1] (C57BL/6, mouse, whole blood, po, 20 mg/kg, po 20 mg/kg, dosed compound measured), the time to peak (Tmax) is approximately 0.7 h. The Cmax in series [1] (C57BL/6, mouse, po 20 mg/kg, whole blood, dosed compound measured, read-out: Cmax) was 490 ± 20 nM. The BA in series [1] (po 20 mg/kg vs iv, 20 mg/kg) was 4% and 4 ± 0.3%. Moreover, the “AUC0-∞” value in series [1] (po 20 mg/kg, whole blood, dosed compound measured, 20 mg/kg) is 59 µmol·min/L and 59 ± 2 µmol·min/L. The same compound yielded a Bound to microsomes in series [2] of 99%. In series [3] (5 mg/kg per table footnote), this compound returned a distribution volume (Vd) of 6.59 ± 1.83 L/kg and a clearance of 28.5 ± 2.17 mL/min/kg. In series [3] (5 mg/kg per table footnote (10 mg/kg per method)), this compound gave a half-life of 2.62 ± 0.61 h. This compound also had a Bound to microsomes in series [4] of 99%.

By Tmax is commonly meant the time at which the peak concentration occurs. As a reminder, the Cmax is the highest concentration seen after dosing. Broadly, the Vd is the apparent volume that relates the amount in the body to the concentration in plasma or blood. A higher Vd goes with wide distribution into tissue. One may read the clearance as the rate of elimination divided by the concentration. The low end stands for inefficient removal, the high end for efficient removal. For orientation: half-life means how long it takes for the measured level to halve. Low values mean rapid decline, high ones slow decline.
